Data taken from publication PMC6934184, “Selective DNA-PKcs inhibition extends the therapeutic index of localized radiotherapy and chemotherapy” (The Journal of Clinical Investigation, 2019).

Target: T1, DDR2 (Homo sapiens, UniProt Q16832)
T1 construct: purchased Thermo Fisher Scientific (Life Technologies) SelectScreen
Assay: SelectScreen LanthaScreen
Assay type: binding
Details: read-out: % displacement
Procedure, shortened: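 SelectScreen broad panel; activity (Z'LYTE, Adapta) plus binding formats. ATP: Km app for CSF1R Z'LYTE; 10 for CAMK1 Adapta. Readout = % per kinase.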

T1 sequence (Q16832 22-855): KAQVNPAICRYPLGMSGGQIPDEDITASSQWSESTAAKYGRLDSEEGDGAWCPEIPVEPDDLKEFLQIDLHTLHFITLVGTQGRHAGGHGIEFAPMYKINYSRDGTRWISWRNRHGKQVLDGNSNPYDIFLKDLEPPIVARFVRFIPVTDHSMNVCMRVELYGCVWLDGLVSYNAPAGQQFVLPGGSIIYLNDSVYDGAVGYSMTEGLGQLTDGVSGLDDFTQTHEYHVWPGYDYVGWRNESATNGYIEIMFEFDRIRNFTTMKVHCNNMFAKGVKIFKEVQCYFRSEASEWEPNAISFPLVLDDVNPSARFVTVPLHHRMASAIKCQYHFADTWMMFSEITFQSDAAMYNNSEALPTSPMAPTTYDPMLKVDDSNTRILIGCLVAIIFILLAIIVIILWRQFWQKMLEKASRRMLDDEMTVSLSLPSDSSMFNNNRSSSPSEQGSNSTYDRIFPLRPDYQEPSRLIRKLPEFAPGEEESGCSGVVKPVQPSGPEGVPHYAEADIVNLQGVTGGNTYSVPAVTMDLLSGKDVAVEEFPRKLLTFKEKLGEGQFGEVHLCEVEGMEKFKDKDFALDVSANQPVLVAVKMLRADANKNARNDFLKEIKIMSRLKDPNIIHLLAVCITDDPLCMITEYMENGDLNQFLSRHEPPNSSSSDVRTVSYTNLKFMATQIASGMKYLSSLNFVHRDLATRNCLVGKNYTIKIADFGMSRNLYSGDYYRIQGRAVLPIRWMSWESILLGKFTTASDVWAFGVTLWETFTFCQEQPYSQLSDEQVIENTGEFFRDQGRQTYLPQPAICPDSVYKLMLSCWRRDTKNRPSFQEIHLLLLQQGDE

SMILES: CN(C(=O)CN1CCOCC1)c1ccc2sc3c(-c4cccc5c(=O)cc(N6CC7CCC(C6)O7)oc45)cccc3c2c1 [NU5455]
- inhibition at 1 µM: 0.7%
